Assay results from patent US20120029054A1, “RNA Interference Mediated Inhibition of GATA Binding Protein 3 (GATA3) Gene Expression Using Short Intefering Nucleic Acid (siNA)” (Merck Sharp & Dohme Corp., priority 2009, published 2012).

System: GATA3 mRNA
Assay: GATA3 mRNA knock-down (Taqman qRT-PCR) after RNAiMax transfection of human MCF7 cells; screen and IC50 dose response
Format: cell-based
Details: for % KD Human: 10 nM siNA, 24 hrs; for % KD GATA3 mRNA at 10 nM: Table 4, MCF7 cells; for % KD GATA3 10 nM: Table 5, MCF7 cells
Outline: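 MCF7 cells (5000/well, 24 h) transfected with siNA–RNAiMax complexes at 10 nM final siNA for 24 h without media change. GATA3 mRNA measured by TaqMan qRT-PCR, alongside β-actin and GAPDH probes. % knock-down by comparative Ct (2^−ΔΔCt) relative to non-targeting control siNA.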

[1] = mean ± S.D., * Hs00231122_m1 Taqman Assay
[2] = mean ± S.D., ** Hs00922328_m1 Taqman Assay

Substance: 30263-DC: GATA3 siNA duplex, site 817: sense B cGccucuGcuucAuGGAuc TTB (SEQ 79), antisense GAUccAuGAAGcAGAGGcGUU (SEQ 80) (sense CGCCUCUGCUUCAUGGAUCTT; antisense GAUCCAUGAAGCAGAGGCGUU; chemistry not fully specified)
- % KD Human (MCF7 cells, * Hs00231122_m1 Taqman Assay): 74 ± 5* %
- % KD Human (MCF7 cells, ** Hs00922328_m1 Taqman Assay): 60 ± 10** %
- IC50 (MCF7 cells, mean ± S.D.): 104 ± 41 pM
- % KD GATA3 mRNA at 10 nM [1]: 74 ± 5* %
- % KD GATA3 mRNA at 10 nM [2]: 60 ± 10** %
- % KD GATA3 10 nM [1]: 74 ± 5* %
- % KD GATA3 10 nM [2]: 60 ± 10** %
